These results are taken from publication PMC3985256, “Synthesis of Brominated 2-Phenitidine Derivatives as Valuable Inhibitors of Cholinesterases for the Treatment of Alzheimer’s Disease” (Iranian Journal of Pharmaceutical Research : IJPR, 2014).

The structures appear in SMILES notation. Where two headings read alike, the source gives them in different places. Where only a bound is given, the exact number is not on record here.

Assay type in all cases: biochemical
In one assay the target is T1, lipoxygenase (LOX) (Glycine max, UniProt P08170).
T1 sequence (P08170 1-839): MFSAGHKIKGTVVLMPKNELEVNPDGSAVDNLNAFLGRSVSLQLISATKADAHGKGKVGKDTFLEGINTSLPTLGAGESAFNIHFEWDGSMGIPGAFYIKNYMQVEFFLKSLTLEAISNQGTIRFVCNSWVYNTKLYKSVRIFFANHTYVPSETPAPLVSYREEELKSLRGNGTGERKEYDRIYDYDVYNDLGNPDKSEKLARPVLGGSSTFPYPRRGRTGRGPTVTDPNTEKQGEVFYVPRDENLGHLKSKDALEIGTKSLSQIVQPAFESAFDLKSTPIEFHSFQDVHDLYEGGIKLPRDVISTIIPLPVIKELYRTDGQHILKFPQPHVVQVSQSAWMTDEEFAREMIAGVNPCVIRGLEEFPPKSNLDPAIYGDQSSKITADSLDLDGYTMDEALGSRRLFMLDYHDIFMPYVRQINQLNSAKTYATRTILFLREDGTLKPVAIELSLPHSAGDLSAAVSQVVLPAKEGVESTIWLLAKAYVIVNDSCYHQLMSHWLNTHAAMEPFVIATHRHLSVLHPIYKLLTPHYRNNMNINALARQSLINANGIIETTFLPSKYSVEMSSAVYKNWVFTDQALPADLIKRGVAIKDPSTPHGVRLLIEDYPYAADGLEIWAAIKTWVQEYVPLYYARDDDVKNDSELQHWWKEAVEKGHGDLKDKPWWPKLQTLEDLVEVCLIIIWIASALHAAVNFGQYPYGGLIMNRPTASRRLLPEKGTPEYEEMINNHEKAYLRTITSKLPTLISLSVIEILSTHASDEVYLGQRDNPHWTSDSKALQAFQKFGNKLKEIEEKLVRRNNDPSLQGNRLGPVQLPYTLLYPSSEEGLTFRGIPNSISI
As to the kind of experiment: Lipoxygenase inhibition assay. As to conditions: n = 3, mean ± sem; for inhibition at 500 µM: 0.5 mM. As to the method:
Lipoxygenase activity was assayed according to the reported method ([18]-[20]) but with slight modifications. A total volume of 200 μL assay mixture contained 150 μL sodium phosphate buffer (100 mM, pH 8.0), 10 μL test compound and 15 μL purified lipoxygenase enzyme (Sigma, USA). The contents were mixed and pre-read at 234 nm and pre-incubated for 10 min at 25 °C. The reaction was initiated by the addition of 25 μL substrate solution. The change in absorbance was observed after 6 min at 234 nm. Synergy HT (BioTek, USA) 96-well plate reader was used in all experiments. All reactions were performed in triplicates. The positive and negative controls were included in the assay. Baicalein (0.5 mM well^-1) was used as a positive control. The percentage inhibition was calculated by formula as follows.

The target in assay [1] is acetylcholinesterase (AChE) (Homo sapiens, UniProt P22303). As to the kind of experiment: Acetylcholinesterase inhibition assay. Particulars: for inhibition at 500 µM: read-out: Acetylcholinestrase (AChE) inhibition (%) at 0.5 mM. The procedure:
The AChE inhibition activity was performed according to the reported method ([14]) with slight modifications. Total volume of the reaction mixture was 100 μL. It contained 60 μL Na2HPO4 buffer with concentration of 50 mM and pH 7.7. Ten μL test compound (0.5 mM well^-1) was added, followed by the addition of 10 μL (0.005 unit well^-1) enzyme. The contents were mixed and pre-read at 405 nm. Then contents were pre-incubated for 10 min at 37 °C. The reaction was initiated by the addition of 10 μL of 0.5 mM well^-1 substrate (acetylthiocholine iodide), followed by the addition of 10 μL DTNB (0.5 mM well^-1). After 15 min of incubation at 37 °C, absorbance was measured at 405 nm. Synergy HT (BioTek, USA) 96-well plate reader was used in all experiments. All experiments were carried out with their respective controls in triplicate. […] The percent inhibition was calculated by the help of following equation )[19] (.
(§1) Inhibition %=Control-Test/Control×100
(§2) IC50 values (concentration at which there is 50% enzyme inhibition) of compounds were calculated using EZ-Fit Enzyme kinetics software (Perella Scientific Inc. Amherst, USA).

The target of assay [2] is butyrylcholinesterase (BChE) (Homo sapiens, UniProt P06276). As to the kind of experiment: Butyrylcholinesterase inhibition assay. As to conditions: for inhibition at 500 µM: read-out: Butyrylcholinesterase (BChE) inhibition (%) at 0.5 mM. As to the method:
The BChE inhibition activity was performed according to the reported method ([14],[17]) with slight modifications. Total volume of the reaction mixture was 100 μL containing 60 μL, Na2HPO4 buffer, 50 mM and pH 7.7. Ten μL test compound 0.5 mM well^-1, followed by the addition of 10 μL (0. 5 unit well^-1) BChE. The contents were mixed and pre-read at 405 nm. Then contents were pre-incubated for 10 min at 37 °C. The reaction was initiated by the addition of 10 μL of 0.5 mM well^-1 substrate (butyrylthiocholine bromide), followed by the addition of 10 μL DTNB (0.5 mM well^-1). After 15 min of incubation at 37 °C, absorbance was measured at 405 nm. Synergy HT (BioTek, USA) 96-well plate reader was used in all experiments. All experiments were carried out with their respective controls in triplicate. […] The percent inhibition was calculated by the help of following equation.
as §1, §2

Setting [3] is: n = 3, mean ± sem, read-out: Butyrylcholinesterase (BChE) (IC50).
[4] abbreviates: n = 3, mean ± sem, read-out: Acetylcholinestrase (AChE) (IC50).

Sequence of acetylcholinesterase (AChE) (P22303 32-614): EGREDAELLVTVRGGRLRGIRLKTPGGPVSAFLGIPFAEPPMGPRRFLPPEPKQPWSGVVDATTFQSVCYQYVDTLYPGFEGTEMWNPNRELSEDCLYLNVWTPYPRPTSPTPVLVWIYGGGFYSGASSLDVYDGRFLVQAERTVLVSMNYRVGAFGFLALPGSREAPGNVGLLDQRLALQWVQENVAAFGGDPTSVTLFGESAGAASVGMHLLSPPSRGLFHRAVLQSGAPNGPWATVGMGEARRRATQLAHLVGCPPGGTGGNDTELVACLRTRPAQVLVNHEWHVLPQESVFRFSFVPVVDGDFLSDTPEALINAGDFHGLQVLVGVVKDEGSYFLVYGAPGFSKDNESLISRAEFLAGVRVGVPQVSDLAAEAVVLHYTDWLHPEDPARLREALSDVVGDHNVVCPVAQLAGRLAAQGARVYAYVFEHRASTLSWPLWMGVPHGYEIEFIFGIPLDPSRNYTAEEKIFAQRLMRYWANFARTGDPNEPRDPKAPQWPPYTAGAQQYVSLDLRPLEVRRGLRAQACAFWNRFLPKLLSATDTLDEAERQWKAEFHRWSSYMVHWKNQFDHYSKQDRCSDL
Sequence of butyrylcholinesterase (BChE) (P06276 29-602): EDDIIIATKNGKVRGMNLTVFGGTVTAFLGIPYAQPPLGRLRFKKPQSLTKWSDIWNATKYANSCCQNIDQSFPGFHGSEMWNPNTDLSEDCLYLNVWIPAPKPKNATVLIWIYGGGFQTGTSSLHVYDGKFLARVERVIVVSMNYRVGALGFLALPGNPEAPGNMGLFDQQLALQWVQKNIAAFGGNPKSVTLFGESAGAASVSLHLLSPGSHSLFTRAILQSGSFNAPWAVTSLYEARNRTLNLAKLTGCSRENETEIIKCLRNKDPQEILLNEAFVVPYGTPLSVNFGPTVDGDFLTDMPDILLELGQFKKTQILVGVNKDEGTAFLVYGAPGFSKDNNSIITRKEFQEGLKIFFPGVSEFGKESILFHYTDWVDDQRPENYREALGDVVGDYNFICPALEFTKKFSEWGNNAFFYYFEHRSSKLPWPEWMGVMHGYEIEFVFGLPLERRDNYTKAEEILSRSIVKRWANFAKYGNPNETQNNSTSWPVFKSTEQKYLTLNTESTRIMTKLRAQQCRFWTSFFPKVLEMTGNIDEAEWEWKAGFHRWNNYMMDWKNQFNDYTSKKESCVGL

As a reminder, the IC50 is the midpoint of a concentration-inhibition curve. `O=c1cc(-c2ccccc2)oc2cc(O)c(O)c(O)c12` [Baicalein, reference compound]: the IC50 on lipoxygenase (LOX) came out at 22.4 ± 1.3 µM.
The term inhibition denotes how much of the control response was suppressed. As to `CCOc1cc(Br)c(Br)cc1NS(=O)(=O)c1ccccc1` [Compound 4, N-(4,5-dibromo-2-ethoxyphenyl)benzenesulfonamide], the inhibition at 500 µM in assay [1] (0.5 mM, n = 3, mean ± sem) came out at 44.15 ± 0.19%; at lipoxygenase (LOX), 11.6 ± 0.27%; in assay [2] (0.5 mM, n = 3, mean ± sem), 80.75 ± 0.17%. Moreover, the “Acetylcholinestrase (AChE) (IC50)” value in assay [1] (n = 3, mean ± sem) is reported as “NIL”. For the same compound, the “Lipoxygenase (LOX) (IC50)” value at lipoxygenase (LOX) is given as “NIL”. Moreover, in assay [2] (setting [3]), the IC50 is 70.21 ± 0.18 µM.
As for `CCOc1cc(Br)c(Br)cc1N(CC)S(=O)(=O)c1ccccc1` [Compound 6a, N-Ethyl-N-(4,5-dibromo-2-ethoxyphenyl)benzenesulfonamide], the inhibition at 500 µM in assay [1] (0.5 mM, n = 3, mean ± sem) was 28.9 ± 0.31%; on lipoxygenase (LOX) it was 81.75 ± 0.71%; in assay [2] (0.5 mM, n = 3, mean ± sem) it was 85.33 ± 0.26%. In addition, the “Acetylcholinestrase (AChE) (IC50)” value in assay [1] (n = 3, mean ± sem) is listed as “NIL”. In assay [2] (setting [3]), the half-inhibitory concentration (IC50) came to 54.9 ± 0.85 µM.
In the case of `CCOc1cc(Br)c(Br)cc1N(C(C)C)S(=O)(=O)c1ccccc1` [Compound 6b, N-Isopropyl -N-(4,5-dibromo-2-ethoxyphenyl)benzenesulfonamide], the inhibition at 500 µM in assay [1] (0.5 mM, n = 3, mean ± sem) came to 79.07 ± 0.38%; at lipoxygenase (LOX) it was 83.54 ± 0.33%; in assay [2] (0.5 mM, n = 3, mean ± sem), 56.57 ± 0.55%. The IC50 in assay [1] (setting [4]) is 87.31 ± 0.11 µM; in assay [2] (setting [3]), more than 300 µM.
Consider `C=CCN(c1cc(Br)c(Br)cc1OCC)S(=O)(=O)c1ccccc1` [Compound 6c, N-Allyl -N-(4,5-dibromo-2-ethoxyphenyl)benzenesulfonamide], for which the inhibition at 500 µM in assay [1] (0.5 mM, n = 3, mean ± sem) came to 72.22 ± 0.55%; at lipoxygenase (LOX) it was 66.26 ± 0.54%; in assay [2] (0.5 mM, n = 3, mean ± sem), 80.75 ± 0.68%. Besides, the IC50 was 143.91 ± 0.08 µM in assay [1] (setting [4]) and 68.41 ± 0.21 µM in assay [2] (setting [3]).
On to `CCOc1cc(Br)c(Br)cc1N(CCBr)S(=O)(=O)c1ccccc1` [Compound 6d], for which the IC50 in assay [1] came out at 131.9 ± 0.16 µM; in assay [2] it was 45.31 ± 0.17 µM. For the same compound, the inhibition at 500 µM is 73.21 ± 0.71% in assay [1], 83.95 ± 0.22% at lipoxygenase (LOX) and 87.2 ± 0.96% in assay [2].
Take `CCOc1cc(Br)c(Br)cc1N(Cc1ccccc1)S(=O)(=O)c1ccccc1` [Compound 6e, N-Benzyl-N-(4,5-dibromo-2-ethoxyphenyl)benzenesulfonamide]: the inhibition at 500 µM in assay [1] (0.5 mM, n = 3, mean ± sem) was 79.27 ± 0.63%; on lipoxygenase (LOX), 31.29 ± 0.18%; in assay [2] (0.5 mM, n = 3, mean ± sem) it was 85.92 ± 0.28%. Besides, the IC50 in assay [1] (setting [4]) is 88.21 ± 0.17 µM; in assay [2] (setting [3]), 58.71 ± 0.08 µM. Further, the “Lipoxygenase (LOX) (IC50)” value at lipoxygenase (LOX) is listed as “NIL”.
Turning to `CCOc1cc(Br)c(Br)cc1N(CCc1ccccc1)S(=O)(=O)c1ccccc1` [Compound 6f, N-Phenylethyl-N-(4,5-dibromo-2-ethoxyphenyl)benzenesulfonamide], the inhibition at 500 µM in assay [1] (0.5 mM, n = 3, mean ± sem) amounted to 77.58 ± 0.66%; on lipoxygenase (LOX) it was 90.02 ± 0.37%; in assay [2] (0.5 mM, n = 3, mean ± sem), 88.73 ± 0.14%. Further, the IC50 in assay [1] (setting [4]) came to 86.41 ± 0.51 µM; in assay [2] (setting [3]) it was 53.41 ± 0.51 µM.
On to `CCOc1cc(Br)c(Br)cc1N(CCCc1ccccc1)S(=O)(=O)c1ccccc1` [Compound 6g, N-Phenylpropyl-N-(4,5-dibromo-2-ethoxyphenyl)benzenesulfonamide], for which the inhibition at 500 µM came out at 77.18 ± 0.33% in assay [1] (0.5 mM, n = 3, mean ± sem); 75.21 ± 0.11% at lipoxygenase (LOX); 90.14 ± 0.77% in assay [2] (0.5 mM, n = 3, mean ± sem). Further, the IC50 in assay [1] (setting [4]) was determined as 158.41 ± 0.11 µM; in assay [2] (setting [3]), 57.5 ± 0.63 µM.
`CCOc1cc(Br)c(Br)cc1N(Cc1ccc(Br)cc1)S(=O)(=O)c1ccccc1` [Compound 6h]: the inhibition at 500 µM was 74.31 ± 0.11% in assay [1] (0.5 mM, n = 3, mean ± sem); 37.04 ± 0.28% on lipoxygenase (LOX); 87.91 ± 0.25% in assay [2] (0.5 mM, n = 3, mean ± sem). Moreover, the IC50 was determined as 145.6 ± 0.21 µM in assay [1] (setting [4]) and 60.11 ± 0.34 µM in assay [2] (setting [3]). The “Lipoxygenase (LOX) (IC50)” value at lipoxygenase (LOX) is “NIL”.
As for `CCOc1cc(Br)c(Br)cc1N(Cc1cccc(Cl)c1)S(=O)(=O)c1ccccc1` [Compound 6i], the inhibition at 500 µM in assay [1] (0.5 mM, n = 3, mean ± sem) is 82.54 ± 0.36%; on lipoxygenase (LOX), 49.6 ± 0.64%; in assay [2] (0.5 mM, n = 3, mean ± sem), 91.78 ± 0.33%. Moreover, the IC50 in assay [1] (setting [4]) worked out at 73.9 ± 0.87 µM; in assay [2] (setting [3]), 57.11 ± 0.46 µM. The “Lipoxygenase (LOX) (IC50)” value on lipoxygenase (LOX) is given as “NIL”.
On to `CCOc1cc(Br)c(Br)cc1N(Cc1ccc(F)cc1)S(=O)(=O)c1ccccc1` [Compound 6j], for which the inhibition at 500 µM in assay [1] (0.5 mM, n = 3, mean ± sem) was 81.45 ± 0.12%; on lipoxygenase (LOX) it was 51.23 ± 0.31%; in assay [2] (0.5 mM, n = 3, mean ± sem), 87.21 ± 0.31%. The IC50 was 71.31 ± 0.09 µM in assay [1] (setting [4]) and 60.2 ± 0.66 µM in assay [2] (setting [3]).
On to `CCOc1cc(Br)c(Br)cc1N(Cc1ccccc1Cl)S(=O)(=O)c1ccccc1` [Compound 6k], for which the inhibition at 500 µM in assay [1] (0.5 mM, n = 3, mean ± sem) amounted to 86.71 ± 0.22%; at lipoxygenase (LOX) it was 33.23 ± 0.22%; in assay [2] (0.5 mM, n = 3, mean ± sem) it was 93.66 ± 0.82%. The results for the IC50 in assay [1] (setting [4]) and in assay [2] (setting [3]) were 52.41 ± 0.27 µM and 42.21 ± 0.25 µM, respectively. In addition, the “Lipoxygenase (LOX) (IC50)” value at lipoxygenase (LOX) was “NIL”.
In the case of `CCOc1cc(Br)c(Br)cc1N(Cc1ccc(Cl)cc1)S(=O)(=O)c1ccccc1` [Compound 6l], the inhibition at 500 µM stood at 82.94 ± 0.15% in assay [1] (0.5 mM, n = 3, mean ± sem); 55.5 ± 0.84% at lipoxygenase (LOX); 66.31 ± 0.11% in assay [2] (0.5 mM, n = 3, mean ± sem). In addition, the IC50 in assay [1] (setting [4]) worked out at 126.61 ± 0.02 µM; in assay [2] (setting [3]) it was 190.31 ± 0.17 µM.
